Data as given in patent US4526892A, “Dimethylaminoalkyl-3-(ergoline-8'βcarbonyl)-ureas” (Farmitalia Carlo Erba, S.p.A., priority 1982, dated 1985).
Where two headings read alike, the source gives them in different places.

Columns and labels:
prolactin secretion = experiment: Anti-prolactin activity: egg-nidation inhibition in rats; format: in vivo, rat (Sprague Dawley); details: Rattus norvegicus, po, 120 h, read-out: Nidation inhibition in rats ED50
Excerpt: The prolactin secretion inhibitory action of the compounds has been indirectly evaluated by determining the egg-nidation inhibitory action in rats. For the ergoline derivatives this activity is considered to be correlated with the anti-prolactin activity (E. FLUCKIGER and E. DEL POZO,Handb. exp. Pharmac. 49, 615, 1978), since prolactin is the only hypophysial hormone involved in the maintenance of the first part of pregnancy in rats (W. K. MORISHIGE and I. ROTHCHILD, Endocrinology 95, 260, 1974).
Pregnant Sprague Dawley rats weighing 200-250 g were used. The compounds to be tested, dissolved in diluted mineral acids, were administered orally to groups from six to eight rats on day 5 of pregnancy. The animals were sacrificed on day 14 and the uteri were examined. The absence of implantation sites was taken as the criterion of anti-prolactin activity. Several doses were tested for the ED50 evaluation. As reference standard Bromocriptine was used.

Emetic activity in dogs = details: dog, in vivo, po, observed for 6 hours; read-out: Emetic activity in dogs ED50
Excerpt: The emetic activity of the compounds was investigated by oral administration to male beagle dogs weighing 15-20 kg. […] Four to six animals per dose were employed for the ED50 evaluation. […] The emetic activity of the compounds is similar or lower than that of Bromocriptine. The ratio between activity and tolerance of the new ergoline derivatives accordingly is very high.

[1] = test system: spontaneously hypertensive male rats, strain SHR; experiment: Anti-hypertensive activity: change in blood pressure (BP) in SHR rats; format: in vivo, rat
Method: (§1) Four spontaneously hypertensive male rats, strain SHR, weighing 250-300 g for each group were used. The animals were treated once a day for four consecutive days. Drugs were administered by gastric gavage, suspended in 5% gum arabic (0.2 ml/100 g body weight) and blood pressure (BP) and heart rate (HR) were measured by indirected tail/cuff method (BP Recorder W+W). Blood pressure and heart rate were measured on the first and fourth days of treatment 1 hour before and 1 and 5 hours after drug administration. Hydralazine and α-methyl-Dopa were used as reference drugs.

[2] = test system: spontaneously hypertensive male rats, strain SHR; experiment: Change in heart rate (HR) in SHR rats; format: in vivo, rat
Method: as §1

[3] = 0.5 mg/kg os, 1st day, 1 hour after dosing
[4] = 0.5 mg/kg os, 1st day, 5 hours after dosing
[5] = 0.5 mg/kg os, 4th day, 1 hour after dosing
[6] = 0.5 mg/kg os, 4th day, 5 hours after dosing
[7] = 1 mg/kg os, 1st day, 1 hour after dosing
[8] = 1 mg/kg os, 1st day, 5 hours after dosing
[9] = 1 mg/kg os, 4th day, 1 hour after dosing
[10] = 1 mg/kg os, 4th day, 5 hours after dosing
[11] = os, all tested doses of the compound
[12] = 2 mg/kg os, 1st day, 1 hour after dosing
[13] = 2 mg/kg os, 1st day, 5 hours after dosing
[14] = 2 mg/kg os, 4th day, 1 hour after dosing
[15] = 2 mg/kg os, 4th day, 5 hours after dosing
[16] = 10 mg/kg os, 1st day, 1 hour after dosing
[17] = 10 mg/kg os, 1st day, 5 hours after dosing
[18] = 10 mg/kg os, 4th day, 1 hour after dosing
[19] = 10 mg/kg os, 4th day, 5 hours after dosing
[20] = 0.1 mg/kg os, 1st day, 1 hour after dosing
[21] = 0.1 mg/kg os, 1st day, 5 hours after dosing
[22] = 0.1 mg/kg os, 4th day, 1 hour after dosing
[23] = 0.1 mg/kg os, 4th day, 5 hours after dosing
[24] = 12.5 mg/kg os, 1st day, 1 hour after dosing
[25] = 12.5 mg/kg os, 1st day, 5 hours after dosing
[26] = 12.5 mg/kg os, 4th day, 1 hour after dosing
[27] = 12.5 mg/kg os, 4th day, 5 hours after dosing
[28] = 5 mg/kg os, 1st day, 1 hour after dosing
[29] = 5 mg/kg os, 1st day, 5 hours after dosing
[30] = 5 mg/kg os, 4th day, 1 hour after dosing
[31] = 5 mg/kg os, 4th day, 5 hours after dosing

CC(C)C[C@H]1C(=O)N2CCC[C@H]2[C@]2(O)O[C@](NC(=O)[C@@H]3C=C4c5cccc6[nH]c(Br)c(c56)C[C@H]4N(C)C3)(C(C)C)C(=O)N12 [2-bromo-α-ergocryptine, reference compound]
ED50 (prolactin secretion): 5.7 mg/kg
TD50 at 6 h (Emetic activity in dogs): 0.01 to 0.02 mg/kg

CC(C)NC(=O)N(C(=O)[C@@H]1C[C@@H]2c3cccc4[nH]cc(c34)C[C@H]2N(C)C1)C(C)C [Example 1, 1,3-diisopropyl-3-(6'-methylergoline-8'β-carbonyl)urea]
Change in BP [1, 3]: -27 mmHg
Change in BP [1, 4]: -20 mmHg
Change in BP [1, 5]: -20 mmHg
Change in BP [1, 6]: 0 mmHg
Change in BP [1, 7]: -40 mmHg
Change in BP [1, 8]: -37 mmHg
Change in BP [1, 9]: -40 mmHg
Change in BP [1, 10]: -32 mmHg
Hypotensive activity vs Hydralazine ([1]; doses not stated): greater and longer lasting hypotensive activity than Hydralazine
Effect on BP (in words) [1, 11]: marked decrease of BP in a dose dependent manner
Change in HR [2, 3]: -20 beats/minute
Change in HR [2, 4]: -12 beats/minute
Change in HR [2, 5]: -20 beats/minute
Change in HR [2, 6]: -7 beats/minute
Change in HR [2, 7]: -30 beats/minute
Change in HR [2, 8]: -35 beats/minute
Change in HR [2, 9]: -35 beats/minute
Change in HR [2, 10]: -30 beats/minute

CCCN1C[C@H](C(=O)N(C(=O)NC(C)C)C(C)C)C[C@@H]2c3cccc4[nH]cc(c34)C[C@H]21 [Example 5, 1,3-diisopropyl-3-(6'-n-propylergoline-8'β-carbonyl)-urea]
ED50 (prolactin secretion; p.o., day 5 of pregnancy): 0.02 mg/kg
TD50 at 6 h (Emetic activity in dogs): 0.01 mg/kg

CO[C@]12C[C@@H](C(=O)N(C(=O)NC(C)(C)C)C(C)(C)C)CN(C)[C@@H]1Cc1c[nH]c3cccc2c13 [Example 12, 1,3-di-t-butyl-3-(10'αmethoxy-6'-methylergoline-8'β-carbonyl)-urea]
Change in BP [1, 12]: -17 mmHg
Change in BP [1, 13]: -17 mmHg
Change in BP [1, 14]: -10 mmHg
Change in BP [1, 15]: -24 mmHg
Tolerance on the 4th day ([1]; 10 mg/kg): tolerance does not occur
Change in BP [1, 16]: -26 mmHg
Change in BP [1, 17]: -37 mmHg
Change in BP [1, 18]: -71 mmHg
Change in BP [1, 19]: -28 mmHg
Hypotensive activity vs Hydralazine ([1]; compound 10 mg/kg vs Hydralazine 5 mg/kg, 1st day): comparable activity to that of Hydralazine
Hypotensive activity vs Hydralazine ([1]; compound 10 mg/kg vs Hydralazine 5 mg/kg, 4th day): greater activity on the 4th day
Effect on BP (in words) [1, 11]: reduced BP in a dose dependent manner
Change in HR [2, 12]: -10 beats/minute
Change in HR [2, 13]: -10 beats/minute
Change in HR [2, 14]: -20 beats/minute
Change in HR [2, 15]: -12 beats/minute
Change in HR [2, 16]: 0 beats/minute
Change in HR [2, 17]: -30 beats/minute
Change in HR [2, 18]: +17 beats/minute
Change in HR [2, 19]: -10 beats/minute

CCNC(=O)N(CCCN(C)C)C(=O)[C@@H]1C[C@@H]2c3cccc4[nH]cc(c34)C[C@H]2N(C)C1 [Example 13, 1-ethyl-3-(3'-dimethylaminopropyl)-3(6'-methylergoline-8'β-carbonyl)-urea]
ED50 (prolactin secretion): 0.3 mg/kg
TD50 at 6 h (Emetic activity in dogs): 0.01 mg/kg

CO[C@]12C[C@@H](C(=O)N(C(=O)NC(C)(C)C)C(C)(C)C)CN(C)[C@@H]1Cc1cn(C)c3cccc2c13 [Example 17]
Effect on BP (in words) ([1]; 0.1 mg/kg b.w.): No effect
Change in BP [1, 20]: -5 mmHg
Change in BP [1, 21]: -7 mmHg
Change in BP [1, 22]: -4 mmHg
Change in BP [1, 23]: -10 mmHg
Change in BP [1, 7]: -20 mmHg
Change in BP [1, 8]: -19 mmHg
Change in BP [1, 9]: -43 mmHg
Change in BP [1, 10]: -66 mmHg
Effect on BP (in words) ([1]; 10 mg/kg b.w., 1st and 4th day): dose related as well as very marked
Change in BP [1, 17]: -60 mmHg
Change in BP [1, 18]: -59 mmHg
Change in BP [1, 19]: -93 mmHg
Hypotensive activity vs Hydralazine ([1]; compound 1 mg/kg vs Hydralazine 5 mg/kg, 4th day): much more remarkable
Hypotensive activity vs Hydralazine ([1]; compound 1 mg/kg vs Hydralazine 5 mg/kg, first day): comparable to that of Hydralazine
Hypotensive effect vs Hydralazine ([1]; compound 10 mg/kg b.w., 1st and 4th days): hypotensive effect larger than Hydralazine
Change in HR [2, 20]: -2 beats/minute
Change in HR [2, 21]: +3 beats/minute
Change in HR [2, 22]: -4 beats/minute
Change in HR [2, 23]: -8 beats/minute
Change in HR [2, 7]: -20 beats/minute
Change in HR [2, 8]: -23 beats/minute
Change in HR [2, 9]: -27 beats/minute
Change in HR [2, 10]: -22 beats/minute
Change in HR [2, 16]: +15 beats/minute
Change in HR [2, 17]: -13 beats/minute
Change in HR [2, 18]: -2 beats/minute
Change in HR [2, 19]: +6 beats/minute

CN1C[C@H](C(=O)N(C(=O)NC(C)(C)C)C(C)(C)C)C[C@@H]2c3cccc4c3c(cn4C)C[C@H]21 [Example 18, 1,3-di-tert-butyl-3-(1',6'-dimethylergoline-8'β-carbonyl)urea]
Change in BP [1, 7]: -15 mmHg
Change in BP [1, 8]: -10 mmHg
Change in BP [1, 9]: -8 mmHg
Change in BP [1, 10]: -14 mmHg
Effect on BP (in words) ([1]; 12.5 mg/kg b.w. (highest dose), 4th day): very remarkable on the 4th day of treatment and still lasting 5 hours after administration
Change in BP [1, 24]: -19 mmHg
Change in BP [1, 25]: -19 mmHg
Change in BP [1, 26]: -38 mmHg
Change in BP [1, 27]: -47 mmHg
Hypotensive activity vs Hydralazine ([1]; compound 12.5 mg/kg vs Hydralazine 5 mg/kg, 4th day): much more remarkable
Hypotensive activity vs Hydralazine ([1]; compound 12.5 mg/kg vs Hydralazine 5 mg/kg, first day): comparable to that of Hydralazine
Effect on BP (in words) [1, 11]: reduced BP with both the tested doses (12.5 and 1 mg/kg b.w.); this effect was dose dependent
Change in HR [2, 7]: -22 beats/minute
Change in HR [2, 8]: -20 beats/minute
Change in HR [2, 9]: +7 beats/minute
Change in HR [2, 10]: -8 beats/minute
Change in HR [2, 24]: -10 beats/minute
Change in HR [2, 25]: -15 beats/minute
Change in HR [2, 26]: +2 beats/minute
Change in HR [2, 27]: +5 beats/minute

C=CCN1C[C@H](C(=O)N(CCCN(C)C)C(=O)NCC)C[C@@H]2c3cccc4[nH]cc(c34)C[C@H]21 [Example 19, 1-ethyl-3-(3'-dimethylaminopropyl)-3-(6'-allylergoline-8'βcarbonyl)-urea]
ED50 (prolactin secretion; p.o., day 5 of pregnancy): 0.03 mg/kg
TD50 at 6 h (Emetic activity in dogs): 0.02 mg/kg

C=CCN1C[C@H](C(=O)N(CC)C(=O)NCCCN(C)C)C[C@@H]2c3cccc4[nH]cc(c34)C[C@H]21 [Example 20, 1-(3'-dimethylaminopropyl)-3-ethyl-3-(6'-allylergoline-8'β-carbonyl)-urea]
ED50 (prolactin secretion; p.o., day 5 of pregnancy): 0.27 mg/kg

CCCN1C[C@H](C(=O)N(CCCN(C)C)C(=O)NCC)C[C@@H]2c3cccc4[nH]cc(c34)C[C@H]21 [Example 21, 1-ethyl-3-(3'-dimethylaminopropyl)-3-(6'-n-propylergoline-8'β-carbonyl)-urea]
ED50 (prolactin secretion; p.o., day 5 of pregnancy): 0.02 mg/kg
TD50 at 6 h (Emetic activity in dogs): 0.02 to 0.04 mg/kg

C=CCN1C[C@H](C(=O)N(C)C(=O)NC)C[C@@H]2c3cccc4[nH]cc(c34)C[C@H]21 [Example 24, 1,3-Dimethyl-3-(6'-allylergoline-8'β-carbonyl)-urea]
ED50 (prolactin secretion; p.o., day 5 of pregnancy): 0.5 mg/kg

NNc1nncc2ccccc12 [Hydralazine, reference compound]
Change in BP [1, 7]: -5 mmHg
Change in BP [1, 8]: -15 mmHg
Change in BP [1, 9]: -5 mmHg
Change in BP [1, 10]: 0 mmHg
Change in BP [1, 28]: -40 mmHg
Change in BP [1, 29]: -20 mmHg
Change in BP [1, 30]: -20 mmHg
Change in BP [1, 31]: -7 mmHg
Change in HR [2, 7]: +30 beats/minute
Change in HR [2, 8]: +35 beats/minute
Change in HR [2, 9]: +25 beats/minute
Change in HR [2, 10]: +15 beats/minute
Change in HR [2, 28]: +40 beats/minute
Change in HR [2, 29]: +45 beats/minute
Change in HR [2, 30]: +18 beats/minute
Change in HR [2, 31]: +15 beats/minute
Effect on HR (in words) ([2]; SHR rats, os): increase of HR
